Experimental data taken from ChEMBL document CHEMBL5528067, “From Synergy to Monotherapy: Discovery of Novel 2,4,6-Trisubstituted Triazine Hydrazone Derivatives with Potent Antifungal Potency In Vitro and In Vivo” (J Med Chem, 2024).

Columns and labels:
Type in all cases: functional
[1] = system: Candida albicans; experiment: Antifungal activity against FCZ-resistant Candida albicans strain 904 assessed as growth inhibition measured after 48 hrs incubation by CLSI based micro-dilution broth method
[2] = system: Candida albicans; experiment: Antifungal activity against FCZ-resistant Candida albicans strain 901 assessed as growth inhibition in presence of fluconazole measured after 48 hrs incubation by CLSI based micro-dilution broth method
[3] = system: Candida albicans; experiment: Antifungal activity against FCZ-resistant Candida albicans strain 901 assessed as growth inhibition measured after 48 hrs incubation by CLSI based micro-dilution broth method
[4] = system: Candida albicans; experiment: Synergistic antifungal activity against FCZ-resistant Candida albicans strain 904 assessed as fractional inhibitory concentration index measured after 48 hrs in presence of FCZ by CLSI based micro-dilution broth method
[5] = system: Candida albicans; experiment: Antifungal activity against FCZ-resistant Candida albicans strain 904 assessed as growth inhibition in presence of fluconazole measured after 48 hrs incubation by CLSI based micro-dilution broth method
[6] = system: Candida albicans; experiment: Synergistic antifungal activity against FCZ-resistant Candida albicans strain 901 assessed as fractional inhibitory concentration index measured after 48 hrs in presence of FCZ by CLSI based micro-dilution broth method

Row | SMILES | MIC80 [1] | MIC80 [2] | MIC80 [3] | fractional inhibitory concentration index (FICI) [4] | MIC80 [5] | fractional inhibitory concentration index (FICI) [6]
1 | O=[N+]([O-])c1cc(O)ccc1/C=N/Nc1nc(NCc2ccc(F)cc2)nc(NCc2ccc(F)cc2)n1 | > 64 µg/mL | 2 µg/mL | > 64 µg/mL | 0.16 | 2 µg/mL | 0.16
2 | O=[N+]([O-])c1ccc(/C=N/Nc2nc(NCc3ccc(F)cc3)nc(NCc3ccc(F)cc3)n2)cc1 | > 64 µg/mL | > 64 µg/mL | > 64 µg/mL | 1.13 | > 64 µg/mL | 1.13
3 | O=[N+]([O-])c1cc(/C=N/Nc2nc(NCc3ccc(F)cc3)nc(NCc3ccc(F)cc3)n2)ccc1O | > 64 µg/mL | 8 µg/mL | > 64 µg/mL | 0.19 | 4 µg/mL | 0.25
4 | Oc1cccc(/C=N/Nc2nc(NCc3ccc(F)cc3)nc(NCc3ccc(F)cc3)n2)c1 | > 64 µg/mL | 8 µg/mL | > 64 µg/mL | 0.25 | 8 µg/mL | 0.25
5 | Fc1ccc(CNc2nc(NCc3ccc(F)cc3)nc(N/N=C/c3ccc(Cl)cc3)n2)cc1 | > 64 µg/mL | > 64 µg/mL | > 64 µg/mL | 1.13 | > 64 µg/mL | 1.13
6 | Oc1ccc(/C=N/Nc2nc(NCc3ccc(F)cc3)nc(NCc3ccc(F)cc3)n2)cc1 | > 64 µg/mL | 16 µg/mL | > 64 µg/mL | 0.38 | 16 µg/mL | 0.38
7 | Fc1ccc(CNc2nc(NCc3ccc(F)cc3)nc(N/N=C/c3cccc(F)c3)n2)cc1 | > 64 µg/mL | > 64 µg/mL | > 64 µg/mL | 1.13 | > 64 µg/mL | 1.13
8 | Cc1cccc(/C=N/Nc2nc(NCc3ccc(F)cc3)nc(NCc3ccc(F)cc3)n2)c1 | > 64 µg/mL | > 64 µg/mL | > 64 µg/mL | 1.13 | > 64 µg/mL | 1.13
9 | N#Cc1ccc(/C=N/Nc2nc(NCc3ccc(F)cc3)nc(NCc3ccc(F)cc3)n2)cc1 | > 64 µg/mL | > 64 µg/mL | > 64 µg/mL | 1.13 | > 64 µg/mL | 1.13
10 | Fc1ccc(CNc2nc(NCc3ccc(F)cc3)nc(N/N=C/c3ccc(OC(F)(F)F)cc3)n2)cc1 | > 64 µg/mL | > 64 µg/mL | > 64 µg/mL | 1.13 | > 64 µg/mL | 1.13
11 | Fc1ccc(/C=N/Nc2nc(NCc3ccc(F)cc3)nc(NCc3ccc(F)cc3)n2)cc1 | > 64 µg/mL | > 64 µg/mL | > 64 µg/mL | 1.13 | > 64 µg/mL | 1.13
12 | O=[N+]([O-])c1ccc(O)cc1/C=N/Nc1nc(NCc2ccc(F)cc2)nc(NCc2ccc(F)cc2)n1 | > 64 µg/mL | 8 µg/mL | > 64 µg/mL | 0.25 | 8 µg/mL | 0.25
13 | O=[N+]([O-])c1cc(O)cc(/C=N/Nc2nc(NCc3ccc(F)cc3)nc(NCc3ccc(F)cc3)n2)c1 | > 64 µg/mL | 8 µg/mL | > 64 µg/mL | 0.19 | 4 µg/mL | 0.25
14 | Fc1ccc(CNc2nc(NCc3ccc(F)cc3)nc(N/N=C/c3ccc(I)cc3)n2)cc1 | > 64 µg/mL | > 64 µg/mL | > 64 µg/mL | 1.13 | > 64 µg/mL | 1.13
15 | O=[N+]([O-])c1c(O)cccc1/C=N/Nc1nc(NCc2ccc(F)cc2)nc(NCc2ccc(F)cc2)n1 | > 64 µg/mL | > 64 µg/mL | > 64 µg/mL | 1.13 | > 64 µg/mL | 1.13
16 | Fc1ccc(CNc2nc(NCc3ccc(F)cc3)nc(N/N=C/c3ccccc3)n2)cc1 | > 64 µg/mL | > 64 µg/mL | > 64 µg/mL | 1.13 | > 64 µg/mL | 1.13
17 | Fc1ccc(CNc2nc(NCc3ccc(F)cc3)nc(N/N=C/c3ccccc3F)n2)cc1 | > 64 µg/mL | > 64 µg/mL | > 64 µg/mL | 1.13 | > 64 µg/mL | 1.13
18 | COc1ccc(/C=N/Nc2nc(NCc3ccc(F)cc3)nc(NCc3ccc(F)cc3)n2)cc1 | > 64 µg/mL | > 64 µg/mL | > 64 µg/mL | 1.13 | > 64 µg/mL | 1.13
19 | Fc1ccc(CNc2nc(NCc3ccc(F)cc3)nc(N/N=C/c3ccc(C(F)(F)F)cc3)n2)cc1 | > 64 µg/mL | > 64 µg/mL | > 64 µg/mL | 1.13 | > 64 µg/mL | 1.13
20 | Cc1ccc(/C=N/Nc2nc(NCc3ccc(F)cc3)nc(NCc3ccc(F)cc3)n2)cc1 | > 64 µg/mL | > 64 µg/mL | > 64 µg/mL | 1.13 | > 64 µg/mL | 1.13
21 | O=[N+]([O-])c1cccc(/C=N/Nc2nc(NCc3ccc(F)cc3)nc(NCc3ccc(F)cc3)n2)c1 | > 64 µg/mL | > 64 µg/mL | > 64 µg/mL | 1.13 | > 64 µg/mL | 1.13
22 | Fc1ccc(CNc2nc(NCc3ccc(F)cc3)nc(N/N=C/c3ccccc3Cl)n2)cc1 | > 64 µg/mL | > 64 µg/mL | > 64 µg/mL | 1.13 | > 64 µg/mL | 1.13
23 | Fc1ccc(CNc2nc(NCc3ccc(F)cc3)nc(N/N=C/c3ccc(Br)cc3)n2)cc1 | > 64 µg/mL | > 64 µg/mL | > 64 µg/mL | 1.13 | > 64 µg/mL | 1.13
24 | Fc1ccc(CNc2nc(NCc3ccc(F)cc3)nc(N/N=C/c3cccc(Cl)c3)n2)cc1 | > 64 µg/mL | > 64 µg/mL | > 64 µg/mL | 1.13 | > 64 µg/mL | 1.13
25 | Cc1ccccc1/C=N/Nc1nc(NCc2ccc(F)cc2)nc(NCc2ccc(F)cc2)n1 | > 64 µg/mL | > 64 µg/mL | > 64 µg/mL | 1.13 | > 64 µg/mL | 1.13
26 | O=[N+]([O-])c1ccc(/C=N/Nc2nc(NCc3ccc(F)cc3)nc(NCc3ccc(F)cc3)n2)cc1O | > 64 µg/mL | 4 µg/mL | > 64 µg/mL | 0.19 | 4 µg/mL | 0.19
